Values joined by “and” are separate entries in the source; they are usually repeats but may differ in a detail not shown here. Identical values can stand only once.
Assays:
[1] = system: citric acid induced cough responses; experiment: Citric acid induced cough, theobromine and ACE inhibitor (Example 11)
[2] = system: citric acid induced cough responses; experiment: Citric acid induced cough, theobromine and expectorant (Example 7)
[3] = system: citric acid induced cough responses; experiment: Citric acid induced cough, theobromine and neuropathic pain agent (Example 9)
coughing condition = experiment: Treatment of a coughing condition, patient cases (Example 12); type: in vivo, human; settings: person, after about 2 days
[4] = system: citric acid induced cough responses; experiment: Citric acid induced cough, theobromine and terpene (Example 10)
[5] = system: citric acid induced cough responses; experiment: Citric acid induced cough, theobromine and opiate antitussive agent (Example 4); type: in vivo, guinea pig
[6] = system: citric acid induced cough responses; experiment: Citric acid induced cough, oral theobromine (Example 1); type: in vivo, guinea pig; settings: 120 min prior to citric acid exposure
[7] = system: citric acid induced cough responses; experiment: Citric acid induced cough, oral and intratracheal theobromine (Example 2); settings: 30 min prior
[8] = system: citric acid induced cough responses; experiment: Citric acid induced cough, theobromine and antihistamine (Example 6)
[9] = system: citric acid induced cough responses; experiment: Citric acid induced cough, theobromine and decongestant (Example 5); type: in vivo, guinea pig
[10] = system: citric acid induced cough responses; experiment: Citric acid induced cough, theobromine and NSAID (Example 8)
[11] = system: citric acid induced cough responses; experiment: Citric acid induced cough, theobromine and non-opiate antitussive agent (Example 3)
[12] = system: citric acid induced cough; settings: guinea-pigs (Minamizawa et al. 2006); cited from earlier work
cough = settings: clinical treatment; apparent success attributed to placebo effect (Ramsey et al.); cited from earlier work
[13] = captopril 30 mg/kg p.o., 120 min prior
[14] = guaifenesin 30 mg/kg p.o., 60 min prior
[15] = gabapentin 60 mg/kg p.o. only, 60 min prior
[16] = theobromine 10 mg/kg p.o., 30 min prior
[17] = theobromine 10 mg/kg p.o., 120 min prior
[18] = theobromine 7 mg/kg p.o., 120 min prior
[19] = theobromine 30 mg/kg p.o., 120 min prior
[20] = ibuprofen 30 mg/kg p.o. only, 60 min prior
[21] = codeine 25 mg/kg i.p., 30 min prior

C[C@H](CS)C(=O)N1CCC[C@H]1C(=O)O [captopril]
onset time to the first cough [1, 13]: 34 ± 12 s | total number of coughs [1, 13]: 45±12 coughs

COc1ccccc1OCC(O)CO (stereo not drawn) [guaifenesin]
Cough Events Mean Number [2, 14]: 28 ± 3 coughs | Cough Events Mean Onset Time [2, 14]: 52 ± 10 s

NCC1(CC(=O)O)CCCCC1 [Gabapentin]
onset time to the first cough [3, 15]: 90 ± 6 s | total number of coughs [3, 15]: 24±8 coughs

Cn1cnc2c1c(=O)[nH]c(=O)n2C [theobromine, 3,7-dihydro-3,7-dimethyl-1H-purine-2,6-dione]
coughing episodes as indicated by patient (coughing condition; cough as side-effect of ACE inhibitor medication, theobromine in conjunction with the ACE inhibitor): decreased coughing episodes | coughing episodes as indicated by patient (coughing condition; cough due to angiotensin II receptor antagonist medication, theobromine in conjunction with it): decreased coughing episodes | Cough Events Mean Number [2, 16]: 15 ± 3 coughs | Cough Events Mean Onset Time [2, 16]: 126 ± 12 s | number of citric acid induced coughs [4, 17]: 14±5 coughs | onset time to the first cough [4, 17]: 120 ± 23 s | Cough Events Mean Number [5, 18]: 19 ± 3 coughs | Cough Events Mean Onset Time [5, 18]: 91 ± 13 s | Cough Events Mean Number ([6]; theobromine 3 mg/kg p.o.): 25 ± 4 coughs | Cough Events Mean Onset Time ([6]; theobromine 3 mg/kg p.o.): 73 ± 17 s | Cough Events Mean Number ([6]; theobromine 7 mg/kg p.o.): 18 ± 3 coughs | Cough Events Mean Onset Time ([6]; theobromine 7 mg/kg p.o.): 98 ± 36 s | Cough Events Mean Number ([7]; theobromine 3 mg/kg i.t.): 17 ± 2 coughs | Cough Events Mean Onset Time ([7]; theobromine 3 mg/kg i.t.): 115 ± 29 s | Cough Events Mean Number ([7]; theobromine 10 mg/kg i.t.): 10.3±2 coughs and 10 ± 2 coughs | Cough Events Mean Onset Time ([7]; theobromine 10 mg/kg i.t.): 134 ± 18 s | Cough Events Mean Number ([7]; theobromine 30 mg/kg i.t.): 6 ± 1 coughs | Cough Events Mean Onset Time ([7]; theobromine 30 mg/kg i.t.): 210 ± 22 s | Cough Events Mean Number ([7]; theobromine 30 mg/kg p.o.): 12 ± 2 coughs | Cough Events Mean Onset Time ([7]; theobromine 30 mg/kg p.o.): 126 ± 20 s | number of citric acid induced coughs [1, 19]: 10±4 coughs | onset time to the first cough [1, 19]: 125 ± 22 s | number of citric acid induced coughs [3, 17]: 14±4 coughs | onset time to the first cough [3, 17]: 108 ± 19 s | Cough Events Mean Number [8, 17]: 15 ± 2 coughs | Cough Events Mean Onset Time [8, 17]: 103 ± 15 s | Cough Events Mean Number [9, 17]: 13 ± 3 coughs | Cough Events Mean Onset Time [9, 17]: 156 ± 15 s | number of citric acid induced coughs [10, 17]: 15±3 coughs | onset time to the first cough [10, 17]: 113 ± 15 s | Cough Events Mean Number [11, 17]: 13 ± 2 coughs | Cough Events Mean Onset Time [11, 17]: 139 ± 22 s

CN[C@@H](C)[C@@H](O)c1ccccc1 [pseudoephedrine]
efficacy in the citric acid induced cough model [12]: very limited efficacy

CC(C)Cc1ccc(C(C)C(=O)O)cc1 (stereo not drawn) [Ibuprofen]
onset time to the first cough [10, 20]: 70 ± 5 s | total number of coughs [10, 20]: 22±6 coughs

COc1ccc2c3c1O[C@H]1[C@@H](O)C=C[C@H]4[C@@H](C2)N(C)CC[C@@]341 [codeine]
number of citric acid induced coughs [4, 21]: 6±2 coughs | onset time to the first cough [4, 21]: 170 ± 28 s | Cough Events Mean Number [5, 21]: 6 ± 1 coughs | Cough Events Mean Onset Time [5, 21]: 195 ± 33 s | Cough Events Mean Number ([7]; codeine 25 mg/kg i.p.): 5 ± 1 coughs | Cough Events Mean Onset Time ([7]; codeine 25 mg/kg i.p.): 337 ± 51 s | number of citric acid induced coughs [1, 21]: 7±3 coughs | onset time to the first cough [1, 21]: 170 ± 28 s | number of citric acid induced coughs [3, 21]: 9±4 coughs | onset time to the first cough [3, 21]: 161 ± 31 s | Cough Events Mean Number [8, 21]: 5 ± 1 coughs | Cough Events Mean Onset Time [8, 21]: 236 ± 22 s | Cough Events Mean Number [9, 21]: 6 ± 1 coughs | Cough Events Mean Onset Time [9, 21]: 195 ± 25 s | number of citric acid induced coughs [10, 21]: 8±3 coughs | onset time to the first cough [10, 21]: 150 ± 32 s | Cough Events Mean Number [11, 21]: 7 ± 2 coughs | Cough Events Mean Onset Time [11, 21]: 170 ± 32 s

COc1ccc2c(c1)[C@]13CCCC[C@@H]1[C@H](C2)N(C)CC3 [Dextromethorphan]
efficacy in treating cough (cough): no efficacy

— US10420812B2, “Drug combinations and uses in treating a coughing condition” (Infirst Healthcare Limited, priority 2009, dated 2019)
